In article PMC9697080 (International Journal of Molecular Sciences, 2022):
Values joined by “and” are separate entries in the source; they are usually repeats but may differ in a detail not shown here. Equal values may be shown once.

Key:
HIV-1 protease [1] = biological target: T1, HIV-1 protease (Human immunodeficiency virus type 1 group M subtype B, UniProt P04585); assay: biochemical; assay type: biochemical; settings: for IC50: IC50 (HIV-1 protease inhibition)
[2] = system: VSV-G-pseudotyped HIV-1 (pHIV-1NL4-3); assay: microbe, parasite or virus in culture; assay type: cell-based; settings: for inhibition at 10 µM: Human immunodeficiency virus 1, SUP-T1, read-out: Inhibition (%) (10 μM), effects on late-stage HIV-1; for EC50: Human immunodeficiency virus 1, read-out: Mean EC50 HIV-1NL4-3
[3] = Cytotoxicity assay (CCK8 Assay Kit); settings: human
[4] = system: DRV-resistant HIV-1 variant pHIV-1DRV^RS (V32I, L33F, I54M, I84V); assay: microbe, parasite or virus in culture; assay type: cell-based; settings: for EC50: Human immunodeficiency virus 1, read-out: Mean EC50 HIVDRV^Rs
HIV-1 protease [5] = biological target: T1, HIV-1 protease; assay: biochemical; assay type: binding
HEK293T cells = assay: Cytotoxicity assay (CCK8 Assay Kit); settings: HEK293T (293T) cells, CCK8, 24 h
[6] = system: influenza virus strain H1N1; design: method as in PMID 26077494; settings: read-out: IC50 against influenza H1N1; cited from earlier work
[7] = system: influenza virus strain H5N1; settings: read-out: IC50 against influenza H5N1; cited from earlier work
[8] = system: influenza virus strain H3N2; design: method as in PMID 26077494; settings: read-out: IC50 against influenza H3N2; cited from earlier work
[9] = HEK293T cells, CC50, HEK293T (293T) cells, CCK8, 24 h

SMILES	IC50 (HIV-1 protease [1])	inhibition at 10 µM [2] [%]	CC50 at 24 h [3, 9] [nM]	other results
COc1ccc(S(=O)(=O)N(CC(C)C)C[C@@H](O)[C@H](Cc2ccccc2)NC(=O)c2ccccc2O)cc1 [15a]	3.34 ± 0.28 nM	98 ± 2	> 100000	
COc1ccc(S(=O)(=O)N(CC(C)C)C[C@@H](O)[C@H](Cc2ccccc2)NC(=O)c2ccc(Cl)cc2O)cc1 [15b]	7.82 ± 0.93 nM	96 ± 3	> 20000	EC50 [2]: 1400 ± 23 nM; Fold Resistance, EC50 (mutant)/EC50 (WT) [4]: 1.31 fold; EC50 [4]: 1840 ± 39.6 nM; Kd (HIV-1 protease [5]): 7100 nM; CC50 (HEK293T cells): 33900 nM
COc1ccc(S(=O)(=O)N(CC(C)C)C[C@@H](O)[C@H](Cc2ccccc2)NC(=O)c2ccc(OC)cc2O)cc1 [15c]	4.68 ± 0.74 nM	92 ± 5	> 100000	
COc1ccc(S(=O)(=O)N(CC(C)C)C[C@@H](O)[C@H](Cc2ccccc2)NC(=O)c2ccc(O)c(O)c2)cc1 [15d]	0.0059 ± 0.0007 nM	100	> 20000	Effectivity in single-round infection assay compared with DRV [2]: equipotent with DRV; EC50 [2]: 15.4 ± 2.17 nM; EC50 [4]: 402 ± 47.3 nM; CC50 (HEK293T cells): 38200 nM
COc1ccc(S(=O)(=O)N(CC(C)C)C[C@@H](O)[C@H](Cc2ccccc2)NC(=O)c2ccc(O)cc2O)cc1 [15e]	0.3 ± 0.08 nM	75 ± 6	78800	
COc1ccc(S(=O)(=O)N(CC(C)C)C[C@@H](O)[C@H](Cc2ccccc2)NC(=O)c2cc(O)cc(O)c2)cc1 [15f]	0.0024 ± 0.0004 nM	100		Enhancement of enzymatic inhibitory activity compared with DRV (HIV-1 protease [1]): over 200 fold; Effectivity in single-round infection assay compared with DRV [2]: equipotent with DRV; EC50 [2]: 28.9 ± 9.21 nM; Fold Resistance, EC50 (mutant)/EC50 (WT) [4]: 1.57 fold; EC50 [4]: 45.5 ± 12.1 nM
COc1ccc(S(=O)(=O)N(CC(C)C)C[C@@H](O)[C@H](Cc2ccccc2)NC(=O)c2cc(O)c(O)c(O)c2)cc1 [15g]	1.13 ± 0.23 nM	99 ± 1	> 100000	
COc1ccc(S(=O)(=O)N(CC(C)C)C[C@@H](O)[C@H](Cc2ccccc2)NC(=O)c2cc(OC)c(O)c(OC)c2)cc1 [15h]	0.08 ± 0.03 nM	99 ± 2	84700	
COc1ccc(S(=O)(=O)N(CC(C)C)C[C@@H](O)[C@H](Cc2ccccc2)NC(=O)c2cc(OC)c(OC)cc2O)cc1 [15i]	1.41 ± 0.43 nM		> 100000	
CC(C)CN(C[C@@H](O)[C@H](Cc1ccccc1)NC(=O)c1ccccc1O)S(=O)(=O)c1ccc(N)cc1 [16a]	0.54 ± 0.11 nM	100	> 100000	Effectivity in single-round infection assay compared with DRV [2]: equipotent with DRV
CC(C)CN(C[C@@H](O)[C@H](Cc1ccccc1)NC(=O)c1ccc(Cl)cc1O)S(=O)(=O)c1ccc(N)cc1 [16b]	0.31 ± 0.08 nM	98 ± 2	> 100000	
COc1ccc(C(=O)N[C@@H](Cc2ccccc2)[C@H](O)CN(CC(C)C)S(=O)(=O)c2ccc(N)cc2)c(O)c1 [16c]	4.14 ± 1.38 nM	90 ± 6	> 100000	
CC(C)CN(C[C@@H](O)[C@H](Cc1ccccc1)NC(=O)c1ccc(O)c(O)c1)S(=O)(=O)c1ccc(N)cc1 [16d]	1.63 ± 0.33 nM	100	> 100000	Effectivity in single-round infection assay compared with DRV [2]: equipotent with DRV
CC(C)CN(C[C@@H](O)[C@H](Cc1ccccc1)NC(=O)c1ccc(O)cc1O)S(=O)(=O)c1ccc(N)cc1 [16e]	0.43 ± 0.08 nM	75 ± 8	> 100000	
CC(C)CN(C[C@@H](O)[C@H](Cc1ccccc1)NC(=O)c1cc(O)cc(O)c1)S(=O)(=O)c1ccc(N)cc1 [16f]	0.27 ± 0.03 nM	99 ± 2	> 100000	
CC(C)CN(C[C@@H](O)[C@H](Cc1ccccc1)NC(=O)c1cc(O)c(O)c(O)c1)S(=O)(=O)c1ccc(N)cc1 [16g]	68 nM and 68.2 nM	55 ± 6	57600	
COc1cc(C(=O)N[C@@H](Cc2ccccc2)[C@H](O)CN(CC(C)C)S(=O)(=O)c2ccc(N)cc2)cc(OC)c1O [16h]	0.04 ± 0.003 nM	99 ± 3	> 100000	
COc1cc(O)c(C(=O)N[C@@H](Cc2ccccc2)[C@H](O)CN(CC(C)C)S(=O)(=O)c2ccc(N)cc2)cc1OC [16i]	0.6 ± 0.18 nM		> 100000	
CSc1ccc(S(=O)(=O)N(CC(C)C)C[C@@H](O)[C@H](Cc2ccccc2)NC(=O)c2ccccc2O)cc1 [17a]	3.97 ± 0.41 nM		> 100000	
CSc1ccc(S(=O)(=O)N(CC(C)C)C[C@@H](O)[C@H](Cc2ccccc2)NC(=O)c2ccc(Cl)cc2O)cc1 [17b]	2.79 ± 0.44 nM		> 100000	
COc1ccc(C(=O)N[C@@H](Cc2ccccc2)[C@H](O)CN(CC(C)C)S(=O)(=O)c2ccc(SC)cc2)c(O)c1 [17c]	8.21 ± 1.2 nM		> 100000	
CSc1ccc(S(=O)(=O)N(CC(C)C)C[C@@H](O)[C@H](Cc2ccccc2)NC(=O)c2ccc(O)c(O)c2)cc1 [17d]	0.0076 ± 0.0029 nM	100	> 100000	Effectivity in single-round infection assay compared with DRV [2]: equipotent with DRV
CSc1ccc(S(=O)(=O)N(CC(C)C)C[C@@H](O)[C@H](Cc2ccccc2)NC(=O)c2ccc(O)cc2O)cc1 [17e]	0.4 ± 0.08 nM		> 100000	
CSc1ccc(S(=O)(=O)N(CC(C)C)C[C@@H](O)[C@H](Cc2ccccc2)NC(=O)c2cc(O)cc(O)c2)cc1 [17f]	0.0066 ± 0.0021 nM	100	> 100000	Effectivity in single-round infection assay compared with DRV [2]: equipotent with DRV
COc1cc(C(=O)N[C@@H](Cc2ccccc2)[C@H](O)CN(CC(C)C)S(=O)(=O)c2ccc(SC)cc2)cc(OC)c1O [17h]	0.32 ± 0.03 nM		> 100000	
COc1cc(O)c(C(=O)N[C@@H](Cc2ccccc2)[C@H](O)CN(CC(C)C)S(=O)(=O)c2ccc(SC)cc2)cc1OC [17i]	4.71 ± 0.18 nM		> 100000	
CC(C)CN(C[C@@H](O)[C@H](Cc1ccccc1)NC(=O)O[C@H]1CO[C@H]2OCC[C@H]21)S(=O)(=O)c1ccc(N)cc1 [DRV, Darunavir, reference compound]		100		EC50 [2]: 1.8 ± 0.73 nM; EC50 [4]: 136.8 ± 1.12 nM; CC50 at 24 h [3]: > 100000 nM
O=c1oc2cc(/C=C/c3ccc(O)c(O)c3)oc(=O)c2c2cc(O)c(O)cc12 [Phelligridin D]				IC50 [6]: 8800 nM; IC50 [7]: 10900 nM; IC50 [8]: 10300 nM
